# Source: paper PMC5063506, “A Novel Class of Small Molecule Agonists with Preference for Human over Mouse TLR4 Activation” (PLoS ONE, 2016)
# Legend:
# mouse splenocytes = assay: Cytokine induction in mouse splenocytes (mouse MILLIPLEX); assay type: cell-based, BALB/c mouse; conditions: 1 and 0.2 μg/ml, 24 h
# Protocol: Splenocytes were isolated from naïve BALB/c mice by dissociating spleens with a GentleMACS (Miltenyi) instrument, then filtration through […] screens. For other species, blood was obtained through venipuncture or cardiac puncture into heparinized tubes, then diluted 1:1 with PBS or HBSS and layered onto Ficoll-Histopaque (GE Healthcare) for blood from healthy human volunteers and cynomolgus macaques, Lympholyte-Mammal (Cedarlane Labs) for New Zealand white rabbits, Sprague-Dawley rats, Hartley guinea pigs, cotton rats, and ferrets, followed by standard density centrifugation techniques. […]
# PBMCs (human, cynomolgus macaque, guinea pig, ferret, rabbit, rat, and cotton rat) or splenocytes (mouse) were seeded onto 96-well flat bottom plates at 5 x 10^5 cells/well and stimulated with TLR4 agonists at 1 and 0.2 μg/ml for 24 h at 37°C. […] For human, cyno, mouse, and rat, cell-free SNs were analyzed via human, NHP, mouse, and rat MILLIPLEX kits. For GP, ferret, rabbit, and CR, cells were lysed by Millipore lysing buffer and snap frozen at -70 C until ready for analysis by Affymetrix QuantiGene 2.0 Plex kits. […] Signal was detected using a Bioplex 200 instrument (BioRad). […]
# Fig 6 The Ugi compound-induced cytokine profile is similar to MPL and LPS in human PBMCs but not mouse splenocytes. […] SNs were analyzed via human and mouse MILLIPLEX kits. […]
# [1] = Intrinsic clearance in presence of rat hepatocytes; assay type: in vitro ADME; conditions: read-out: Clint rh (intrinsic clearance, rat hepatocytes)
# From the text: Fig 2 Optimization stages of Ugi products as TLR4 agonists. *Human TLR-4 NFκB SEAP reporter assays; protocol as described in Methods. Data are reported as pEC50, or negative log of the EC50 values. **Clint rh / hm represents intrinsic clearance in presence of rat hepatocytes (μL/min/10^6 cells) and human microsomes (μL/min/mg protein). […] Thus a drug molecule with LogD >4 might be considered to be very lipophilic and therefore more likely to suffer from rapid metabolic turnover, poor solubility and receptor promiscuity; whereas a LogD range of 1–3 is more likely to be associated with optimal physicochemical and drug-like properties. ^††Solubility was measured by dissolution of solid samples in buffer at pH 7.4.
# hTLR4/MD2 KIKO mice = assay: In vivo serum cytokines in hTLR4/MD2 KIKO mice; set-up: species or system mouse; conditions: 50 μg IP, serum at 2 h and 6 h
# From the text: (§1) The humanized TLR4/MD-2 mice, described in detail in [15], express human TLR4 and human MD-2 from bacterial artificial chromosome transgenes that were bred to the mouse TLR4/MD-2 double-knockout (DKO) on a C57BL/6J background. Because the hMD-2 BAC transgene is integrated on the Y-chromosome, only male mice were used in the study. Generally, hMD-2 BAC+ males are bred to hTLR4 BAC+ females (both on DKO background) and male pups were screened for the presence of hTLR4 BAC. Double positives served as the fully humanized TLR4/MD-2 mice and hTLR4 BAC negative mice served as functional KO. Wild-type C57BL/6 mice were bred in parallel. All breeding was performed in an SPF facility at the University of Washington and all protocols were approved by the University of Washington IACUC. For in vivo cytokines, mice were injected intraperitoneally with 50 μg of either AZ618 or MPL in 0.2 ml PBS. Mice were bled from the retroorbital sinus 2 h after injection and terminal cardiocentesis was performed at 6 h for the second blood sample. Serum samples were analyzed via MILLIPLEX kits (EMD Millipore).
# (§2) C57BL/6 mice (6–12 per group) were immunized IP with 50 μg MPL or AZ618 and then were bled at 2 h via retro-orbital route and at 6 h via cardiac puncture. Serum was analyzed by multiplex Millipore kits for cytokine content. […]
# wild-type C57BL/6 mice = assay: In vivo serum cytokines in wild-type C57BL/6 mice; set-up: species or system mouse; conditions: 50 μg IP, serum at 2 h (IL-12 p40, IL-6) and 6 h (IL-12 p40, MIG, RANTES)
# From the text: as §1, §2
smiles,measurement,setting,value
CC(C)(C)c1ccc(N(C(=O)c2cc(-c3ccccc3)n(-c3ccccc3)n2)C(C(=O)NC2CCCC2)c2ccc(CC(=O)O)cc2)cc1 (stereo not shown) [AZ902],reactivity of mouse splenocytes (cytokine secretion),mouse splenocytes,marginal activation
O=C(O)Cc1ccc(C(C(=O)NC2CCCC2)N(C(=O)c2cc(-c3ccccc3)n(-c3ccccc3)n2)c2ccc3c(c2)CCC3)cc1 (stereo not shown) [AZ617],hepatocyte CLint,[1],< 5 µL/min/1e6 cells
"Cc1cc(C)cc(N(C(=O)c2cc(-c3ccccc3)n(-c3ccccc3)n2)C(C(=O)NC2CCCC2)c2ccc(CC(=O)O)cc2)c1 (stereo not shown) [AZ618, 2-(4-(2-(cyclopentylamino)-1-(N-(3,5-dimethylphenyl)-1,5-diphenyl-1H-pyrazole-3-carboxamido)-2-oxoethyl)phenyl)acetic acid]",serum cytokine induction in hTLR4/MD2 KIKO mice,hTLR4/MD2 KIKO mice,induced a very similar pattern of cytokines
same,serum cytokine induction in wild-type C57BL/6 mice,wild-type C57BL/6 mice,not AZ618 induced
